Source: patent US20250270212A1, “CHIMERIC COMPOUNDS USEFUL IN TREATING DISEASES” (Padarn Therapeutics, Inc., priority 2021, published 2025)
Where two headings read alike, the source gives them in different places.

What was measured:
recombinant Wee1 protein = recombinant Wee1 protein (Homo sapiens (Human), UniProt P30291); test: Wee1 enzymatic activity inhibition, ADP-Glo luminescence assay; format: biochemical; conditions: recombinant Wee1, PolyE4Y1 substrate, 1 h room temperature
Protocol: Example A. Primary Assay Used to Determine Potency of Wee1 Enzymatic Activity Inhibition
Compound activity was determined using recombinant Wee1 protein (BPS, Cat #40412) and PolyE4Y1 Substrate (Poly(Glu,Tyr) sodium salt, Sigma, Cat #P0275-25MG) in an in vitro enzymatic reaction. The enzymatic assay used to determine activity was a Luminescence assay using a Microplate Reader (BMG, ClarioStar Plus). The enzymatic reaction was carried out in assay buffer (40 mM TRIS-HCl pH 7.4-7.6, 20 mM MgCl2, 0.05 mM DTT, 0.1 mg/ml BSA, 5 mM MnCl2). The compounds were dispensed on a 384 well Diamond Well Plate (Axigen, Cat #P-384-120SQ-C-S) using the Biomek FX liquid handling system at 100× solutions of compounds in DMSO. 2×Wee1-PolyE4Y1 mix (final concentration 0.85 ng/μl of Wee1 and 0.2 μg/μl of PolyE4Y1) was prepared in 1× Assay buffer and 5.5 μl of mixture per well was added into 384w white Reaction plate with NBS (Corning, Cat #4513). 5.5 μl of PolyE4Y1 substrate w/o Wee1 in 1× buffer was used for negative control. Plates were centrifuged for 1 min at 100 g. Next step the Compounds were added to Reaction plate using Biomek station via following steps: 1 μl of 100× compounds (in DMSO) were mixed thoroughly with 49 μl of 2×10 μM ATP in Assay Buffer, then 5.5 μl of this mixture was added to Reaction plate with 5.5 μl of Wee1-PolyE4Y1 mix. Plates were centrifuged for 1 min at 100 g and incubated for 1 h at room temperature. Next 3 μL of ADP-Glo reagent (Promega, ADP-Glo™ Kinase Assay, Cat #V9102) per well was added. Plates were incubated for 30 minutes at room temperature. Then 6 μL of Kinase detection reagent (Promega, ADP-Glo™ Kinase Assay, Cat #V9102) per well was added and the Luminescence was measured using Microplate Reader. The % inhibition was then used to calculate the IC50 values. The IC50 values are shown in Table A, wherein “A” corresponds to IC50<0.01 μM, “B” corresponds to 0.01 μM≤IC50<0.1 μM, “C” 0.1 μM≤IC50<1 μM, and “D” corresponds to […].

[1] = target: recombinant PARP1 (AA662-1014) protein (Homo sapiens (Human), UniProt P09874); test: Tracer displacement fluorescence polarization assay; conditions: displacement of AlexaFluor488 tracer from NAD+-binding site, PARP1 25 nM
recombinant PARP1 (AA662-1014) protein, sequence (P09874 662-1014): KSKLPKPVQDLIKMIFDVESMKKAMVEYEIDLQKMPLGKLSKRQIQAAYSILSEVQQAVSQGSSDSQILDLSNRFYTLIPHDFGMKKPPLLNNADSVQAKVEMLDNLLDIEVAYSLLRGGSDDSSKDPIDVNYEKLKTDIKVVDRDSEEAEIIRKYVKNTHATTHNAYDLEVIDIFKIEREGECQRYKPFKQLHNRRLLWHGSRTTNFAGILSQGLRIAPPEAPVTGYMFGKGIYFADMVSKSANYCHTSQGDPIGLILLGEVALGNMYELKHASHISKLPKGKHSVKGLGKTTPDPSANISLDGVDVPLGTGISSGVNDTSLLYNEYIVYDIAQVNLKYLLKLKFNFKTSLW
Protocol: Example B. Tracer Displacement Fluorescence Polarization Assays
Displacement of AlexaFlour488 marked tracer from the NAD+-binding site of recombinant PARP1 (AA662-1014) protein (OriGene, Cat #: AR09368PU-L) was measured in vitro using Fluorescence polarization assay. The reaction was carried out in assay buffer (50 mM TRIS-HCl pH 7.4-7.8, 150 mM NaCl, 10 mM MgCl2, 0.001% Triton-X). 2×PARP1 (final concentration 25 nM) was diluted in 1× Assay buffer and 10 μl of the solution per well was added into 384-well Black Non-Treated Reaction plate (Corning, Cat #4511). Plates were centrifuged for 1 min at 200 g. The compounds were prepared in a 384-well Diamond Well Plate (Axygen, Cat #P-384-120SQ-C-S) as 400× solutions in DMSO and were transferred into Reaction plate using the Biomek FX liquid handling system with intermediate dilution down to 10× working solution in assay buffer in a separate 384-well Diamond Well Plate (Axygen, Cat #P-384-120SQ-C-S) (2 μl per well). Plates were centrifuged for 1 min at 200 g and incubated for 15 min at room temperature in the dark. Then 8 μL per well of 2.5× Tracer AlexaFluor488 (final concentration 1 nM) diluted in 1× Assay buffer was added into Reaction plate. 1× Assay buffer was used to make blank samples for instrument calculations. Plates were incubated for 30 minutes at room temperature in the dark. Fluorescence polarization was measured using Microplate Reader (BMG, ClarioStar Plus). The % tracer displacement was used to calculate the IC50 values. The IC50 values are shown in Table A, wherein “A” corresponds to IC50<0.01 μM, “B” corresponds to 0.01 μM≤IC50<0.1 μM, “C” 0.1 μM≤IC50<[…], and “D” corresponds to […].

MDA-MB-231 = test: Cellular growth inhibition assay (CellTiter-Glo); format: cell-based; conditions: Homo sapiens
Protocol: Example E. Cellular Growth Inhibition Assay
HEK293 (Institute of Cytology Russian Academy of Science), MDA-MB-231 (ATCC, CRM-HTB-26), HCC1395 (ATCC, CRL-2324), HCC1937 (ATCC, CRL-2336), UWB1.289+BRCA1 (ATCC, CRL-2946) were seeded at a density of 500 cells per well in a 384-well clear bottom plate (Greiner Cat #781090) in 45 μl total volume of DMEM (PanEco, Cat #C420) or RPMI (PanEco, Cat #C330) or RPMI/MEBM (Lonza, Cat #CC-3151+CC-4136) with 10% FBS (HyClone, Cat #SV30160.03). Cells were allowed to adhere overnight at 370 C, 5% CO2. 500× compounds solutions in DMSO (Sigma Cat #D2650) were prepared into Cmpnds plate (Diamond Well Plate, Axigen, Cat #P-384-120SQ-C-S) and DMSO only control was included. 1 μl of 500× compounds (Cmpnds plate) was added to 49 μl of culture medium into Dilution plate (Diamond Well Plate, Axigen, Cat #P-384-120SQ-C-S), mixed and then 5 μl of 10× compounds solutions were transferred to cells followed by centrifugation at 100 g for 1 min. Final DMSO concentration was 0.2%. After 3 days of incubation, 10 μl of 1× compounds were added to cells. […]

[2] = 120 h, MDA-MB-231, 5 days, read-out: MDA-MB-231 EC50 (μM) 5 days
[3] = 168 h, MDA-MB-231, 7 days, read-out: MDA-MB-231 EC50 (μM) 7 days
[4] = 240 h, MDA-MB-231, 10 days, read-out: MDA-MB-231 EC50 (μM) 10 days

recombinant Wee1 protein, sequence (P30291 whole entry): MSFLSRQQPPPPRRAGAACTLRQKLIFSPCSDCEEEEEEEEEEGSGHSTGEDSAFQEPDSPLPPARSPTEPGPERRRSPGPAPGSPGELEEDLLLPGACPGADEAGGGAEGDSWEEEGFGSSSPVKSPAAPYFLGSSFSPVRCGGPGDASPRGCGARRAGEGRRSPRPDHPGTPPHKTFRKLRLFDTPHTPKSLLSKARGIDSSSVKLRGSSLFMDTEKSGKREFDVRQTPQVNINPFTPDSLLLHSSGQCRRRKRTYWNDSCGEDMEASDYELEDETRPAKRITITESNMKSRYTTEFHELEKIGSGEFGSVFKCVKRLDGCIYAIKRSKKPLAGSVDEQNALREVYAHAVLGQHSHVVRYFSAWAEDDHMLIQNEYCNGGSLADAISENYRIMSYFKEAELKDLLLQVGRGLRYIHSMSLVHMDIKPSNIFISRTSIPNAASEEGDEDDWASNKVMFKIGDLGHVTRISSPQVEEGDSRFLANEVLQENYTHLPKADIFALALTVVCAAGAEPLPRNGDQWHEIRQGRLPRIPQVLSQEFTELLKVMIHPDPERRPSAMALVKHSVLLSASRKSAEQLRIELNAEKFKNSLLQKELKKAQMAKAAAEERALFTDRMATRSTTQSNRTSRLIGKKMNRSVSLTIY

Row | Structure (SMILES) | EC50 (recombinant Wee1 protein) | EC50 [1] | EC50 (MDA-MB-231; [2]) | EC50 (MDA-MB-231; [3]) | EC50 (MDA-MB-231; [4])
1 | Cn1c(=O)c2cnc(Nc3ccc(NC(=O)c4cc(Cn5c(=O)[nH]c(=O)c6c(F)cccc65)ccc4F)cc3)nc2n1-c1ccccn1 [Compound 33, 2-Fluoro-5-[(5-fluoro-2,4-dioxo-3,4-dihydroquinazolin-1(2H)-yl)methyl]-N-{4-[(2-methyl-3-oxo-1-pyridin-2-yl-2,3-dihydro-1H-pyrazolo[3,4-d]pyrimidin-6-yl)amino]phenyl}benzamide] | 100 to 1000 nM | ≥ 1 nM | > 10 µM | – | –
2 | C=CCn1c(=O)c2cnc(Nc3ccc(N4CCN(Cc5ccc(-c6[nH]c7cc(F)cc8c7c6CCNC8=O)cc5)CC4)cc3)nc2n1-c1cccc(C(C)(C)O)n1 [Compound 35, 2-[4-({4-[4-({2-Allyl-1-[6-(1-hydroxy-1-methylethyl)pyridin-2-yl]-3-oxo-2,3-dihydro-1H-pyrazolo[3,4-d]pyrimidin-6-yl}amino)phenyl]piperazin-1-yl}methyl)phenyl]-8-fluoro-1,3,4,5-tetrahydro-6H-azepino[5,4,3-cd]indol-6-one] | 10 to 100 nM | 10 to 100 nM | 0.98 µM | 0.57 µM | 0.08 µM
3 | Cn1c(=O)c2cnc(Nc3ccc(N4CCCC(c5nc6cccc(C(N)=O)c6[nH]5)C4)cc3)nc2n1-c1ccccn1 (stereo not drawn) [Compound 96, 2-[1-[4-[[2-methyl-3-oxo-1-(2-pyridyl)pyrazolo[3,4-d]pyrimidin-6-yl]amino]phenyl]-3-piperidyl]-3H-benzimidazole-4-carboxamide] | – | 10 to 100 nM | 2.77 µM | – | –
4 | Cn1c(=O)c2cnc(Nc3ccc(N4CCN(C(=O)c5cc(Cn6c(=O)[nH]c(=O)c7c(F)cccc76)ccc5F)CC4)cc3)nc2n1-c1ccccn1 [Compound 18, 5-Fluoro-1-{4-fluoro-3-[(4-{4-[(2-methyl-3-oxo-1-pyridin-2-yl-2,3-dihydro-1H-pyrazolo[3,4-d]pyrimidin-6-yl)amino]phenyl}piperazin-1-yl)carbonyl]benzyl}quinazoline-2,4(1H,3H)-dione] | 10 to 100 nM | < 10 nM | > 10 µM | – | –
5 | Cn1c(=O)c2cnc(Nc3ccc(N4CCN(C(=O)c5cc(Cc6n[nH]c(=O)c7ccccc67)ccc5F)CC4)cc3)nc2n1-c1ccccn1 [Compound 3, 4-{4-Fluoro-3-[(4-{4-[(2-methyl-3-oxo-1-pyridin-2-yl-2,3-dihydro-1H-pyrazolo[3,4-d]pyrimidin-6-yl)amino]phenyl}piperazin-1-yl)carbonyl]benzyl}phthalazin-1(2H)-one] | 100 to 1000 nM | < 10 nM | 3.75 µM | – | –
6 | C=CCn1c(=O)c2cnc(Nc3ccc(N4CCN(C(=O)c5cc(Cn6c(=O)[nH]c(=O)c7c(F)cccc76)ccc5F)CC4)cc3)nc2n1-c1cccc(C(C)(C)O)n1 [Compound 16, 1-[[3-[4-[4-[[2-Allyl-1-[6-(1-hydroxy-1-methyl-ethyl)-2-pyridyl]-3-oxo-pyrazolo[3,4-d]pyrimidin-6-yl]amino]phenyl]piperazine-1-carbonyl]-4-fluoro-phenyl]methyl]-5-fluoro-quinazoline-2,4-dione] | – | < 10 nM | 0.96 µM | 0.8 µM | 0.18 µM
7 | C=CCn1c(=O)c2cnc(Nc3ccc(N4CCN(C(=O)c5cc(Cc6n[nH]c(=O)c7ccccc67)ccc5F)CC4)cc3)nc2n1-c1ccccn1 [Compound 10, 4-{3-[(4-{4-[(2-Allyl-3-oxo-1-pyridin-2-yl-2,3-dihydro-1H-pyrazolo[3,4-d]pyrimidin-6-yl)amino]phenyl}piperazin-1-yl)carbonyl]-4-fluorobenzyl}phthalazin-1(2H)-one] | 10 to 100 nM | < 10 nM | 4.89 µM | 2.59 µM | 1.49 µM
8 | Cn1c(=O)c2cnc(Nc3ccc(N4CCN(C(=O)c5cc(Cc6n[nH]c(=O)c7ccccc67)ccc5F)CC4)cc3)nc2n1-c1ncccn1 [Compound 11, 4-{4-Fluoro-3-[(4-{4-[(2-methyl-3-oxo-1-pyrimidin-2-yl-2,3-dihydro-1H-pyrazolo[3,4-d]pyrimidin-6-yl)amino]phenyl}piperazin-1-yl)carbonyl]benzyl}phthalazin-1(2H)-one] | 10 to 100 nM | < 10 nM | 8.76 µM | 6.28 µM | 3.6 µM
